We go through two molecules from ChEMBL document CHEMBL1129844, “Mechanism-based inactivation of l-pipecolate oxidase by a sulfur-containing substrate analog, 5-thia-l-pipecolic acid” (Bioorg Med Chem Lett, 1997).

Data set [1] concerns the target T1, Peroxisomal sarcosine oxidase (Homo sapiens) (UniProt Q9P0Z9).
T1 sequence (whole entry): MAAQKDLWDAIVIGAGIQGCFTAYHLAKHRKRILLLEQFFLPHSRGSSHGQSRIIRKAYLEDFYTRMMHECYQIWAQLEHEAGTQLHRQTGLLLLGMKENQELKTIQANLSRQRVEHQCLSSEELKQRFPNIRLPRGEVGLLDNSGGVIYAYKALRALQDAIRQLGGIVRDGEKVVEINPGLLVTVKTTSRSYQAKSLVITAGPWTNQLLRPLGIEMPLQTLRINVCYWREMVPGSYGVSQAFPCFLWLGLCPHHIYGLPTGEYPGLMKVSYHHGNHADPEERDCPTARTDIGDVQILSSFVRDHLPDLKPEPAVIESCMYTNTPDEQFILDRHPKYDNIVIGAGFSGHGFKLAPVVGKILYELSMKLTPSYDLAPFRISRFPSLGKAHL
Put plainly: Kinetic parameter was evaluated for L-pipecolate oxidase. The settings on record: Cercopithecidae.

Data set [2] addresses T1, Peroxisomal sarcosine oxidase (Homo sapiens). Put plainly: Kinetic parameter was evaluated for L-pipecolate oxidase was expressed as K observed. As to conditions: Cercopithecidae.
The target of data set [3] is T2, Peroxisomal sarcosine oxidase (Homo sapiens, UniProt Q9P0Z9).
T2 sequence (Q9P0Z9 whole entry): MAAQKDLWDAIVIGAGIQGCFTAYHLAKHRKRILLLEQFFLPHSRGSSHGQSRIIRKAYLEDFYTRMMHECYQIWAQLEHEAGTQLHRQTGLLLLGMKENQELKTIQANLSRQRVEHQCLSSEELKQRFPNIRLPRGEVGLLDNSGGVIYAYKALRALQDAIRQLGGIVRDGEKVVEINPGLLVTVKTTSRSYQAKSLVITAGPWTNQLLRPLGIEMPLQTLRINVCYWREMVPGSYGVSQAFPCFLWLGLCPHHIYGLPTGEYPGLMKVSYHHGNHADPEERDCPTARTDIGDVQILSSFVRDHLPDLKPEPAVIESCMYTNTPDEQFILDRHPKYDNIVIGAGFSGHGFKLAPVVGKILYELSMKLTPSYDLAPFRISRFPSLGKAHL
Put plainly: Time and concentration dependent inhibition of L-pipecolate oxidase was determined by the compound. Details: species or system Cercopithecidae.

Data set [4] is described as follows: Partition ratio was calculated from the ratio of kcat/kinact.
The target of data set [5] is T1, Peroxisomal sarcosine oxidase (Homo sapiens). Put plainly: Kinetic parameter was evaluated for L-pipecolate oxidase in Frozen Rhesus monkey liver ith L-PA as substrate. The settings on record: Cercopithecidae, target entry is the homologue from another species. Format: tissue-based.
Data set [6] shares this target. Description: (§1) Kinetic parameter was evaluated for L-pipecolate oxidase using the peroxidase-coupled assay. As to conditions: Cercopithecidae.
Substrate in data set [7]: O=C(O)[C@@H]1CCSCN1
The data set is described as §1. The settings on record: Cercopithecidae.

“And” between values parts separate entries of the source, which are not always exact repeats. Identical values can stand only once.

Broadly, the Ki is the equilibrium dissociation constant of an inhibitor or competing ligand from its target. In turn, `O=C(O)[C@@H]1CCSCN1` registered a K inact in data set [1] of 0.06 min⁻¹. The k obs in data set [2] is 4.01e-05 s⁻¹ and 4.26e-05 s⁻¹. In data set [3], this molecule yielded a Ki of 36 mM. In addition, the Ratio in data set [4] was 85. Further, the k cat in data set [5] was found to be 7.8 min⁻¹; in data set [6] it was 5.1 min⁻¹.

B1: Peroxisomal sarcosine oxidase (Homo sapiens), Q9P0Z9 (protein)
chain: MAAQKDLWDAIVIGAGIQGCFTAYHLAKHRKRILLLEQFFLPHSRGSSHGQSRIIRKAYLEDFYTRMMHECYQIWAQLEHEAGTQLHRQTGLLLLGMKENQELKTIQANLSRQRVEHQCLSSEELKQRFPNIRLPRGEVGLLDNSGGVIYAYKALRALQDAIRQLGGIVRDGEKVVEINPGLLVTVKTTSRSYQAKSLVITAGPWTNQLLRPLGIEMPLQTLRINVCYWREMVPGSYGVSQAFPCFLWLGLCPHHIYGLPTGEYPGLMKVSYHHGNHADPEERDCPTARTDIGDVQILSSFVRDHLPDLKPEPAVIESCMYTNTPDEQFILDRHPKYDNIVIGAGFSGHGFKLAPVVGKILYELSMKLTPSYDLAPFRISRFPSLGKAHL
The Km is the substrate concentration at which the rate is half of its maximum. For the molecule B1, the Km in data set [7] came out at 940 µM.
